Measurements reported in patent publication US9302999B2, “Substituted triazoles as herbicides” (E. I. DU PONT DE NEMOURS AND COMPANY, priority 2012, dated 2016).

Experiments:
[1] = system: goosegrass (Eleusine indica); assay: Test E pre-/postemergence: goosegrass; format: in vivo; details: Preemergence, scale 0 to 100
Description: (§1) Seeds of plant species selected from corn (Zea mays), soybean (Glycine max), velvetleaf (Abutilon theophrasti), lambsquarters (Chenopodium album), poinsettia, wild (wild poinsettia, Euphorbia heterophylla), pigweed, palmer (palmer pigweed, Amaranthus palmeri), waterhemp (common waterhemp, Amaranthus rudis), smartweed (ladysthumb smartweed, Polygonum persicaria), surinam grass (Brachiaria decumbens), crabgrass, large (large crabgrass, Digitaria sanguinalis), crabgrass, Brazil (Brazilian crabgrass, Digitaria horizontalis), panicum, fall (fall panicum, Panicum dichotomiflorum), foxtail, giant (giant foxtail, Setaria faberii), foxtail, green (green foxtail, Setaria viridis), goosegrass (Eleusine indica), johnsongrass (Sorghum halepense), ragweed (common ragweed, Ambrosia elation), barnyardgrass (Echinochloa crus-galli), sandbur (southern sandbur, Cenchrus echinatus), arrowleaf sida (Sida rhombifolia), ryegrass, Italian (Italian ryegrass, Lolium multiflorum), dayflower, (VA) (Virginia dayflower, Commelina virginica), field bindweed (Convolvulus arvensis), cocklebur (common cocklebur, Xanthium strumarium), morningglory (Ipomoea coccinea), nightshade (eastern black nightshade, Solanum ptycanthum), kochia (Kochia scoparia), nutsedge, yellow (yellow nutsedge, Cyperus esculentus) and beggarticks (hairy beggarticks, Bidens pilosa) were planted into a silt loam soil and treated preemergence with test chemicals formulated in a non-phytotoxic solvent mixture which included a surfactant. At the same time, plants selected from these crop and weed species were planted in pots containing a growing medium comprising spaghnum peat moss, vermiculite, wetting agent and starter nutrients and treated with postemergence applications of some of the test chemicals formulated in the same manner. Plants ranged in height from 2 to 18 cm for postemergence treatments (1- to 4-leaf stage).
(§2) Treated plants and controls were maintained in a greenhouse for 14 to 21 days, after which time all species were compared to controls and visually evaluated. Plant response ratings, summarized in Table E, are based on a scale of 0 to 100 where 0 is no effect and 100 is complete control. A dash (-) response means no test result.

[2] = system: foxtail, giant (giant foxtail, Setaria faberii); assay: Test E pre-/postemergence: foxtail, giant; format: in vivo; details: Preemergence, scale 0 to 100
Description: as §1, §2

[3] = system: ragweed (common ragweed, Ambrosia elation); assay: Test E pre-/postemergence: ragweed; format: in vivo; details: Preemergence, scale 0 to 100
Description: as §1, §2

[4] = system: surinam grass (Brachiaria decumbens); assay: Test E pre-/postemergence: surinam grass; format: in vivo; details: Preemergence, scale 0 to 100
Description: as §1, §2

[5] = system: cocklebur (common cocklebur, Xanthium strumarium); assay: Test F pre-/postemergence: cocklebur; format: in vivo; details: Preemergence
Description: (§3) Seeds of plant species selected from corn (Zea mays), soybean (Glycine max), velvetleaf (Abutilon theophrasti), lambsquarters (Chenopodium album), poinsettia, wild (wild poinsettia, Euphorbia heterophylla), pigweed, palmer (palmer pigweed, Amaranthus palmeri), waterhemp (common waterhemp, Amaranthus rudis), surinam grass (Brachiaria decumbens), crabgrass, Brazil (Brazilian crabgrass, Digitaria horizontalis), panicum, fall (fall panicum Panicum dichotomiflorum), crabgrass, large (large crabgrass, Digitaria sanguinalis), foxtail, giant (giant foxtail, Setaria faberii), foxtail, green (green foxtail Setaria viridis), goosegrass (Eleusine indica), ragweed (common ragweed, Ambrosia elatior), barnyardgrass (Echinochloa crus-galli), sandbur (southern sandbur, Cenchrus echinatus), arrowleaf sida (Sida rhombifolia), ryegrass, Italian (Italian ryegrass, Lolium multiflorum), dayflower, VA (Virginia (VA) dayflower, Commelina virginica), field bindweed (Convolvulus arvensis), cocklebur (common cocklebur, Xanthium strumarium), morningglory (Ipomoea coccinea), nightshade (eastern black nightshade, Solanum ptycanthum), kochia (Kochia scoparia), nutsedge, yellow (yellow nutsedge, Cyperus esculentus), johnsongrass (Sorghum halepense), smartweed (ladysthumb smartweed, Polygonum persicaria), and beggarticks (hairy beggarticks, Bidens pilosa), were planted into a silt loam soil and treated preemergence with test chemicals formulated in a non-phytotoxic solvent mixture which included a surfactant. At the same time, plants selected from these crop and weed species and also pigweed (Amaranthus retroflexus), waterhemp_RES1 (ALS/Triazine resistant common waterhemp, Amaranthus rudis) and waterhemp_RES2 (ALS/HPPD resistant common waterhemp, Amaranthus rudis) were planted in pots containing a planting medium comprising spaghnum peat moss, vermiculite, wetting agent and starter nutrients treated with postemergence applications of some of the test chemicals formulated in the same manner. Plants ranged in height from 2 to 18 cm for postemergence treatments (1- to 4-leaf stage).
as §2

[6] = system: nightshade (eastern black nightshade, Solanum ptycanthum); assay: Test F pre-/postemergence: nightshade; format: in vivo; details: Preemergence
Description: as §3, §2

Oilseed Rape = assay: Test C postemergence: oilseed rape; format: in vivo, Brassica napus
Description: Seeds of plant species selected from blackgrass (Alopecurus myosuroides), bromegrass, downy (downy bromegrass, Bromus tectorum), foxtail, green (green foxtail, Setaria viridis), ryegrass, Italian (Italian ryegrass, Lolium multiflorum), winter wheat (Triticum aestivum), wild oat (Avena fatua), galium (catchweed bedstraw, Galium aparine), bermudagrass (Cynodon dactylon), surinam grass (Brachiaria decumbens), cocklebur (common cocklebur, Xanthium strumarium), corn (Zea mays), large crabgrass (Digitaria sanguinalis), woolly cupgrass (Eriochloa villosa), foxtail, giant (giant foxtail, Setaria faberii), goosegrass (Eleusine indica), johnsongrass (Sorghum halepense), kochia (Kochia scoparia), lambsquarters (Chenopodium album), morningglory (Ipomoea coccinea), nightshade (eastern black nightshade, Solanum ptycanthum), nutsedge, yellow (yellow nutsedge, Cyperus esculentus), pigweed (Amaranthus retroflexus), ragweed (common ragweed, Ambrosia elation), soybean (Glycine max), common (oilseed) sunflower (Helianthus annuus), Russian thistle (Salsola kali) and velvetleaf (Abutilon theophrasti) were planted into a blend of loam soil and sand and treated preemergence with test chemicals formulated in a non-phytotoxic solvent mixture which included a surfactant.
At the same time, plants selected from these crop and weed species and also barley (winter barley, Hordeum vulgare), canarygrass (Phalaris minor), chickweed (common chickweed, Stellaria media) windgrass (Apera spica-venti) and deadnettle (henbit deadnettle, Lamium amplexicaule) were planted in pots containing Redi-Earth® planting medium (Scotts Company, 14111 Scottslawn Road, Marysville, Ohio 43041) comprising spaghnum peat moss, vermiculite, wetting agent and starter nutrients and treated with postemergence applications of test chemicals formulated in the same manner. Plants ranged in height from 2 to 18 cm (1- to 4-leaf stage) for postemergence treatments.
as §2, with “13” for “14”, “15” for “21”, “C,” for “E,”

[7] = 16 g ai/ha, scale 0 to 100 (0 no effect, 100 complete control)
[8] = 31 g ai/ha, scale 0 to 100 (0 no effect, 100 complete control)
[9] = 125 g ai/ha, scale 0 to 100, 0 no effect, 100 complete control
[10] = 4 g ai/ha, scale 0 to 100, 0 no effect, 100 complete control
[11] = 8 g ai/ha, scale 0 to 100, 0 no effect, 100 complete control

| Compound | Plant response rating: Goosegrass ([1]; 16 g ai/ha) | Plant response rating: Goosegrass ([1]; 31 g ai/ha) | Plant response rating: Goosegrass ([1]; 125 g ai/ha) | Plant response rating: Foxtail, Giant ([2]; 16 g ai/ha) | Plant response rating: Foxtail, Giant ([2]; 31 g ai/ha) | Plant response rating: Foxtail, Giant ([2]; 125 g ai/ha) | Plant response rating: Ragweed ([3]; 16 g ai/ha) | Plant response rating: Ragweed ([3]; 31 g ai/ha) | Plant response rating: Ragweed ([3]; 62 g ai/ha) | Plant response rating: Ragweed ([3]; 125 g ai/ha) | Plant response rating: Surinam Grass ([4]; 16 g ai/ha) | Plant response rating: Surinam Grass ([4]; 31 g ai/ha) | Plant response rating: Surinam Grass ([4]; 62 g ai/ha) | Plant response rating: Surinam Grass ([4]; 125 g ai/ha) | Plant response rating, Cocklebur ([5]; 62 g ai/ha, scale 0 to 100) | Plant response rating, Nightshade [6, 7] | Plant response rating, Oilseed Rape (Oilseed Rape; [9]) | also measured |
| --- | --- | --- | --- | --- | --- | --- | --- | --- | --- | --- | --- | --- | --- | --- | --- | --- | --- | --- |
| Cc1nn(-c2ccc(F)cc2)nc1Cc1ccnc(C(F)(F)F)c1 [Compound 16, 4-[[2-(4-fluorophenyl)-5-methyl-2H-1,2,3-triazol-4-yl]methyl]-2-(trifluoromethyl)pyridine] | 40 | 98 | 100 | 80 | 100 | 100 | 0 | 0 | 30 | 30 | 0 | 0 | 30 | 35 |  |  |  | Plant response rating: Goosegrass ([1]; 8 g ai/ha): 40; Plant response rating: Goosegrass ([1]; 62 g ai/ha): 100; Plant response rating: Foxtail, Giant ([2]; 8 g ai/ha): 5; Plant response rating: Ragweed ([3]; 8 g ai/ha): 0; Plant response rating: Surinam Grass ([4]; 8 g ai/ha): 0 |
| Cc1nn(-c2ccc(C(F)(F)F)cc2)nc1Cc1ccnc(C(F)(F)F)c1 [Compound 47, 4-[[5-methyl-2-[4-(trifluoromethyl)phenyl]-2H-1,2,3-triazol-4-yl]methyl]-2-(trifluoromethyl)pyridine] | 100 | 100 | 100 | 90 | 100 | 100 | 0 | 0 | 10 | 50 | 15 | 20 | 25 | 40 |  |  |  | Plant response rating: Goosegrass ([1]; 250 g ai/ha): 100; Plant response rating: Foxtail, Giant ([2]; 62 g ai/ha): 100; Plant response rating: Foxtail, Giant ([2]; 250 g ai/ha): 100; Plant response rating: Ragweed ([3]; 250 g ai/ha): 90; Plant response rating: Surinam Grass ([4]; 250 g ai/ha): 65 |
| Cc1nn(-c2ccc(F)cc2)nc1Oc1ccnc(C(F)(F)F)c1 [Compound 129, 4-[[2-(4-fluorophenyl)-5-methyl-2H-1,2,3-triazol-4-yl]oxy]-2-(trifluoromethyl)pyridine] | 40 | 50 | 100 | 20 | 75 | 100 | 0 | 5 | 20 | 20 | 0 | 15 | 15 | 60 |  |  |  | Plant response rating: Goosegrass ([1]; 8 g ai/ha): 40; Plant response rating: Goosegrass ([1]; 62 g ai/ha): 60; Plant response rating: Foxtail, Giant ([2]; 8 g ai/ha): 0; Plant response rating: Foxtail, Giant ([2]; 62 g ai/ha): 98; Plant response rating: Ragweed ([3]; 8 g ai/ha): 0; Plant response rating: Surinam Grass ([4]; 8 g ai/ha): 0 |
| Fc1ccc(-n2nc(Cc3ccnc(C(F)(F)F)c3)c(OCC(F)(F)F)n2)cc1 [Compound 142] |  |  |  |  |  |  |  |  |  |  |  |  |  |  | 0 | 65 |  | Plant response rating, Cocklebur [5, 7]: 0; Plant response rating, Cocklebur [5, 8]: 0; Plant response rating, Nightshade [6, 8]: 80; Plant response rating, Nightshade ([6]; 125 g ai/ha, scale 0 to 100): 98 |
| CCCc1nn(-c2ccc(F)cc2)nc1Cc1ccnc(C(F)(F)F)c1 [Compound 153] |  |  |  |  |  |  |  |  |  |  |  |  |  |  | 0 | 50 | 90 | Plant response rating, Cocklebur [5, 7]: 0; Plant response rating, Nightshade [6, 8]: 50; Plant response rating, Nightshade ([6]; 125 g ai/ha, scale 0 to 100): 100; Plant response rating, Nightshade ([6]; 250 g ai/ha, scale 0 to 100): 100 |
| Cc1nn(-c2ccc(C(F)(F)F)c(F)c2)nc1Cc1ccnc(C(F)(F)F)c1 [Compound 162] |  |  |  |  |  |  |  |  |  |  |  |  |  |  | 0 | 5 | 90 | Plant response rating, Cocklebur [5, 10]: 0; Plant response rating, Cocklebur [5, 11]: 0; Plant response rating, Cocklebur [5, 8]: 0; Plant response rating, Nightshade [6, 10]: 0; Plant response rating, Nightshade [6, 11]: 0 |
| CCc1nn(-c2ccc(F)cc2)nc1Oc1ccnc(C(F)(F)F)c1 [Compound 166] |  |  |  |  |  |  |  |  |  |  |  |  |  |  |  |  | 5 |  |
| CCCc1nn(-c2ccc(C(F)(F)F)c(F)c2)nc1Oc1ccnc(C(F)(F)F)c1 [Compound 185] |  |  |  |  |  |  |  |  |  |  |  |  |  |  |  |  | 50 | Plant response rating, Oilseed Rape (Oilseed Rape; 250 g ai/ha, scale 0 to 100 (0 no effect, 100 complete control)): 55 |
